Test results taken from patent publication US8178530B2, “Imidazolopyrazine compounds useful for the treatment of degenerative and inflammatory diseases” (Janssen Pharmaceutica NV, priority 2006, dated 2012).
pEC50, pIC50: −log10 of the molar value. Where two headings read alike, the source gives them in different places.

Key:
MAPKAPK5 = target: T1, MAPKAPK5 (Homo sapiens, UniProt Q8IW41); assay: MAPKAP-K5 assay (FlashPlate, 33P-ATP); assay type: biochemical; conditions: 0.6 μM ATP, 30 minutes at room temperature
T1 construct: 1 mU MAPKAP-K5
T1 sequence (Q8IW41 1-473): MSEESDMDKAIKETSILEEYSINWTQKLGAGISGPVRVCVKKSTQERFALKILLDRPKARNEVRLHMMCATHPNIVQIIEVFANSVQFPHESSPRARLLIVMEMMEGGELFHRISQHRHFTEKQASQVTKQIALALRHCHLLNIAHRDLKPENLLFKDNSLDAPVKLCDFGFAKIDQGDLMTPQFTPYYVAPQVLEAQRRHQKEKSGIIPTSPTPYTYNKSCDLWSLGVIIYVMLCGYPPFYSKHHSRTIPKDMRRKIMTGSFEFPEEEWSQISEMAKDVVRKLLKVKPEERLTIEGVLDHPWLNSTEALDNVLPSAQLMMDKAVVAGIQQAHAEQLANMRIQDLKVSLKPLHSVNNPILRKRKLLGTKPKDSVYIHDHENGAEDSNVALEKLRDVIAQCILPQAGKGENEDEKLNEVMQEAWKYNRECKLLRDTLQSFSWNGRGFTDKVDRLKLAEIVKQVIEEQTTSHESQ
Method: 3 μM MAPKAP-K5 peptide substrate

[1] = system: TNFα release by human PBMCs; assay: Cytokine release by LPS-stimulated human PBMCs (TNFα ELISA); assay type: cell-based; conditions: LPS 1 μg/mL, 24 hr
Method: Human peripheral blood mononuclear cells (PBMCs) are isolated from “buffy coats” prepared from the blood of healthy volunteers, isolated essentially according to method of Bøyum (1984). In brief, buffy coat is diluted 1:1 with 1×PBS (Gibco) and 30 mL is carefully put on top of 20 mL Lymphoprep™ (Lucron Bioproducts) in 50 mL Falcon tubes. After centrifugation (35 min, 400 g, 18° C.) the mononuclear cells are collected from the white interphase and washed 3 times with 1×PBS by resuspending and centrifugation (10 min, 200 g). Isolated PBMCs are finally resuspended in RPMI 1640 (Cat. No. 21875, Gibco) that is supplemented with 10% heat-inactivated FBS (Hyclone).
For the assay PBMCs are seeded at 2.5E6 cells/mL in 160 μL in 96-well plates (Nunc). Serial dilution of the test compounds are made first in DMSO (Sigma) and then diluted 50-fold in M199 medium (Gibco) containing 1% heat-inactivated FBS. Compounds are further 1/10 diluted in the assay plates to obtain final DMSO concentration of 0.2%. Cells are preincubated with the compounds for 1 hr at 37° C., 5% CO2. Then, cells are stimulated with LPS (Escherichia coli serotype 026:B6, Cat. No. L2654, Sigma) that is added in a volume of 20 μL to a final concentration of 1 μg/mL and cells are further cultured for 24 hr. The plates are centrifuged and the supernatant is collected and stored at −80° C. until analysis of appropriate dilutions in ELISAs.
The following 384-well chemiluminescent ELISA protocol was developed to measure TNFα levels in the supernatant: White Lumitrac 600 384-well plates (Greiner) are coated with (40 μL/well) anti-TNFα capture antibody (Cat. No. 551220, BD Pharmingen) that is diluted to 1 μg/mL in 1×PBS (Gibco). After overnight incubation at 4° C., plates are washed with 1×PBS (80 g NaCl, 2 g KCl (Sigma), 11.5 g Na2HPO4.7H2O and 2 g KH2PO4 in 10 L milliQ; pH 7.4) and blocked with 100 μL/well buffer B (1×PBS containing 1% BSA (Sigma), 5% sucrose (Sigma) and 0.05% NaN3 (Sigma)). After 4 hr incubation at RT, blocking buffer is removed and plates are washed once with PBST (1×PBS with 0.05% Tween-20 (Sigma)). Then, 40 μL of sample is transferred to the ELISA plates and plates are incubated at 4° C. Next day, plates are washed 3 times (twice with PBST and once with PBS) and 35 μL/well biotinylated anti-TNFα antibody (Cat. No. 554511, BD Pharmingen) diluted first to a concentration of 250 ng/ml in buffer D (1×PBS with 1% BSA) is added. After 2 h of incubation at RT, plates are washed as described above and 35 μL/well of a 1/2000 dilution of streptavidin-HRP conjugate (Cat. No. SNN2004, Biosource) in buffer D is added. After 45 min, plates are washed as described above and incubated for 5 min with 50 μL/well BM Chemiluminescence ELISA Substrate POD (Roche). Readout is performed on the Luminoscan Ascent Luminometer (Labsystems) with an integration time of 100 msec delivering raw data (RLU: relative luminescence units). The following controls are included in the experiments, a maximal signal control, in which the cells are activated by LPS but only the 0.2% DMSO vehicle (and thus no compound) is added. This control indicates the maximal level of TNFα that can be achieved in the test. A minimal signal control is also included in these experiments. Here, cells are not triggered. This control returns the basal TNFα levels produced by the PBMCs. The percent inhibition (PIN) of the TNFα release, achieved by the compounds is then calculated based on the RLU data returned by the ELISA with following formula: 100−[((TNFα level compound X at concentration Y−minimal TNFα levels)/(maximal TNFα levels−minimal TNFα levels))×100]. Where compounds are tested at 8 concentrations (1/3 serial dilution), EC50-values can be calculated by curve fitting of the means of the PIN data achieved for a compound at each test concentration. […]

| pIC50 (MAPKAPK5) | Compound | pEC50 ([1]; read-out: PBMC EC50) | pEC50 ([1]; PBMC) |
| --- | --- | --- | --- |
| 6.30 to 7.00 | NC(=O)c1ccc(Nc2ncc(-c3cn[nH]c3)n3ccnc23)cc1 [Compound 11] | – | < 6.00 |
| < 6.00 | CN1CCN(c2ccc(Nc3ncc(-c4cn[nH]c4)n4ccnc34)cc2)CC1 [Compound 14] | – | < 6.00 |
| 6.30 to 7.00 | CCN(CC)CCNC(=O)c1ccc(Nc2ncc(-c3cn[nH]c3)n3ccnc23)cc1 [Compound 32, N-(2-Diethylamino-ethyl)-4-[5-(1H-pyrazol-4-yl)-imidazo[1,2-a]pyrazin-8-ylamino]-benzamide] | – | < 6.00 |
| 6.00 to 6.30 | O=C(NCc1cccnc1)c1ccc(Nc2ncc(-c3cn[nH]c3)n3ccnc23)cc1 [Compound 35] | – | 6.00 to 6.30 |
| 6.30 to 7.00 | NS(=O)(=O)c1ccc(Nc2ncc(-c3cn[nH]c3)n3ccnc23)cc1 [Compound 36] | – | < 6.00 |
| < 6.00 | O=C(Nc1ccccc1)c1ccc(Nc2ncc(-c3cn[nH]c3)n3ccnc23)cc1 [Compound 41] | – | < 6.00 |
| 6.00 to 6.30 | O=C(c1ccc(Nc2ncc(-c3cn[nH]c3)n3ccnc23)cc1)N1CCOCC1 [Compound 45] | – | < 6.00 |
| 6.30 to 7.00 | O=C(NCCN1CCOCC1)c1ccc(Nc2ncc(-c3cn[nH]c3)n3ccnc23)cc1 [Compound 53] | – | < 6.00 |
| 6.30 to 7.00 | O=C(NC1CCNC1)c1ccc(Nc2ncc(-c3cn[nH]c3)n3ccnc23)cc1 (centres unmarked) [Compound 55] | – | < 6.00 |
| 6.30 to 7.00 | CCNCCNC(=O)c1ccc(Nc2ncc(-c3cn[nH]c3)n3ccnc23)cc1 [Compound 56] | – | < 6.00 |
| 6.30 to 7.00 | CN1CCC(NC(=O)c2ccc(Nc3ncc(-c4cn[nH]c4)n4ccnc34)cc2)C1 (centres unmarked) [Compound 64] | – | < 6.00 |
| 6.30 to 7.00 | CCN(CC)CCNS(=O)(=O)c1ccc(Nc2ncc(-c3cn[nH]c3)n3ccnc23)cc1 [Compound 69, N-(2-Diethylaminoethyl)-4-[5-(1H-pyrazol-4-yl)imidazo[1,2-a]pyrazin-8-ylamino]benzenesulfonamide] | – | 6.00 to 6.30 |
| 6.30 to 7.00 | CS(=O)(=O)c1ccc(Nc2ncc(-c3cn[nH]c3)n3ccnc23)cc1 [Compound 71] | – | < 6.00 |
| 6.00 to 6.30 | CCN(CC)CCNC(=O)c1ccc(Nc2ncc(-c3cn[nH]c3)n3ccnc23)cc1F [Compound 82] | – | < 6.00 |
| 6.30 to 7.00 | CCN(CC)CCNC(=O)c1ccc(Nc2ncc(-c3cn[nH]c3)n3ccnc23)c(F)c1 [Compound 83] | – | < 6.00 |
| < 6.00 | CN(C)c1ccc(CNC(=O)c2ccc(Nc3ncc(-c4cn[nH]c4)n4ccnc34)cc2)cc1 [Compound 89] | – | < 6.00 |
| 6.00 to 6.30 | O=C(NCc1ccc(O)cc1)c1ccc(Nc2ncc(-c3cn[nH]c3)n3ccnc23)cc1 [Compound 90, N-(4-Hydroxybenzyl)-4-[5-(1H-pyrazol-4-yl)imidazo[1,2-a]pyrazin-8-ylamino]benzamide] | – | < 6.00 |

| pIC50 (MAPKAPK5) | Compound | pEC50 ([1]; read-out: PBMC EC50) | pEC50 ([1]; PBMC) |
| --- | --- | --- | --- |
| 6.30 to 7.00 | O=C(NCCc1cccnc1)c1ccc(Nc2ncc(-c3cn[nH]c3)n3ccnc23)cc1 [Compound 93] | – | < 6.00 |
| < 6.00 | CCN(CC)CCNS(=O)(=O)c1ccc(Nc2ncc(-c3ccc(C(N)=O)cc3)n3ccnc23)cc1 [Compound 98] | – | < 6.00 |
| 6.30 to 7.00 | CN(C)C(CNC(=O)c1ccc(Nc2ncc(-c3cc[nH]c(=O)c3)n3ccnc23)cc1)c1cccnc1 (centres unmarked) [Compound 114] | – | < 6.00 |
| < 6.00 | CNC(=O)c1ccc(-c2cnc(Nc3ccc(N4CCN(C)CC4)cc3)c3nccn23)cc1 [Compound 116] | – | < 6.00 |
| 6.30 to 7.00 | CN1CCN(c2ccc(Nc3ncc(-c4csc(C(N)=O)c4)n4ccnc34)cc2)CC1 [Compound 118] | – | < 6.00 |
| 6.30 to 7.00 | Cc1[nH]ncc1-c1cnc(Nc2ccc(N3CCN(C)CC3)cc2)c2nccn12 [Compound 119, (4-(4-Methylpiperazin-1-yl)phenyl)-[5-(5-methyl-1H-pyrazol-4-yl)imidazo[1,2-a]pyrazin-8-yl]amine] | – | < 6.00 |
| < 6.00 | Cc1cc(C(N)=O)ccc1-c1cnc(Nc2ccc(N3CCN(C)CC3)cc2)c2nccn12 [Compound 120] | – | < 6.00 |
| < 6.00 | CN1CCN(c2ccc(Nc3ncc(-c4ccc(C(N)=O)c(Cl)c4)n4ccnc34)cc2)CC1 [Compound 124] | – | 6.00 to 6.30 |
| < 6.00 | CN1CCN(c2ccc(Nc3ncc(-c4ccnc(F)c4)n4ccnc34)cc2)CC1 [Compound 125, [5-(2-Fluoro-pyridin-4-yl)-imidazo[1,2-a]pyrazin-8-yl]-[4-(4-methyl-piperazin-1-yl)-phenyl]-amine] | – | < 6.00 |
| 6.30 to 7.00 | CN1CCN(c2ccc(Nc3ncc(-c4ccc(C(N)=O)s4)n4ccnc34)cc2)CC1 [Compound 127, (4-(4-Methylpiperazin-1-yl)phenyl)-[5-(2-carboxamido-5-thienyl)imidazo[1,2-a]pyrazin-8-yl]amine] | – | < 6.00 |
| < 6.00 | CN1CCN(c2ccc(Nc3ncc(-c4ccc(C(N)=O)cn4)n4ccnc34)cc2)CC1 [Compound 128] | – | < 6.00 |
| < 6.00 | CN1CCN(c2ccc(Nc3ncc(-c4ccc(C(N)=O)nc4)n4ccnc34)cc2)CC1 [Compound 129, 5-{8-[4-(4-Methyl-piperazin-1-yl)-phenylamino]-imidazo[1,2-a]pyrazin-5-yl}-pyridine-2-carboxylic acid amide] | – | < 6.00 |
| 6.30 to 7.00 | CN1CCN(c2ccc(Nc3ncc(-c4ccc(C(N)=O)cc4)n4ccnc34)cc2Cl)CC1 [Compound 136, 4-{8-[3-Chloro-4-(4-methyl-piperazin-1-yl)-phenylamino]-imidazo[1,2-a]pyrazin-5-yl}-benzamide] | – | 6.30 to 7.00 |
| 6.30 to 7.00 | C[C@@H]1CN(C)[C@@H](C)CN1c1ccc(Nc2ncc(-c3ccc(C(N)=O)cc3)n3ccnc23)cc1 [Compound 137] | – | < 6.00 |
| < 6.00 | CN1CCN(c2ccc(Nc3ncc(-c4cscn4)n4ccnc34)cc2)CC1 [Compound 138] | – | 6.30 to 7.00 |
| < 6.00 | CN1CCN(c2ccc(Nc3ncc(-c4ccc(C(N)=O)o4)n4ccnc34)cc2)CC1 [Compound 139, 5-{8-[4-(4-Methyl-piperazin-1-yl)-phenylamino]-imidazo[1,2-a]pyrazin-5-yl}-furan-2-carboxylic acid amide] | – | < 6.00 |

| Compound | pIC50 (MAPKAPK5) | pEC50 ([1]; read-out: PBMC EC50) | pEC50 ([1]; PBMC) |
| --- | --- | --- | --- |
| 4-(8-{4-[1-(2,2,2-Trifluoroethyl)piperidin-4-yl]phenylamino}imidazo[1,2-a]pyrazin-5-yl)thiophene-2-carboxylic acid amide [Compound 192] | 7.00 to 9.00 | < 6.00 | – |
